Source: PubChem BioAssay AID743436 (The Scripps Research Institute Molecular Screening Center, 2014)
Active and inactive are the calls of the source. No rule for the calls is given here.

Test system: S1PR3 cell line viability, luminescence counterscreen
Experiment: cytotoxicity of test compounds, late-stage follow-up, cytotoxicity control for S1PR3 antagonist project, cell-based, luminescence (AID 743436)

SMILES | CC50
CCc1ccc(C(NC(=O)c2cccc(Cl)c2)c2nc(-c3ccccc3)no2)cc1 (stereo unspecified) | > 28.2 µM (inactive)
O=C(NC(c1ccc(Cl)cc1)c1nc(-c2ccccn2)no1)c1cccc(Cl)c1 (stereo unspecified) | > 28.2 µM (inactive)
O=C(NC(c1ccccc1)c1nc(-c2ccccc2)no1)c1cccc(Cl)c1 (stereo unspecified) | > 28.2 µM (inactive)
O=C(NC(c1ccc(Cl)c(Cl)c1)c1nc(-c2ccccc2)no1)c1cccc(Cl)c1 (stereo unspecified) | > 28.2 µM (inactive)
O=C(NC(c1ccc(Cl)c(Cl)c1)c1nc(-c2ccccc2)no1)c1ccc(Cl)cc1 (stereo unspecified) | > 28.2 µM (inactive)
Cc1ccc(C(NC(=O)c2cccc(Cl)c2)c2nc(-c3ccccc3)no2)cc1 (stereo unspecified) | > 28.2 µM (inactive)
O=C(NC(c1ccccc1)c1nc(-c2ccccc2)no1)c1cccc(Cl)n1 (stereo unspecified) | > 28.2 µM (inactive)
O=C(Nc1ccc(Cl)c(Cl)c1)NC(c1ccccc1)c1nc(-c2ccccc2)no1 (stereo unspecified) | 7.7 µM
O=C(NC(c1ccc(Cl)cc1)c1nc(-c2ccccc2)no1)c1cccc(Br)c1 (stereo unspecified) | > 28.2 µM (inactive)
COc1ccc(C(=O)NC(c2ccccc2)c2nc(-c3ccccc3)no2)cc1 (stereo unspecified) | > 28.2 µM (inactive)
O=C(NC(c1ccc(Cl)cc1)c1nc(-c2ccccc2)no1)c1cccc(Cl)c1 (stereo unspecified) | > 28.2 µM (inactive)
O=C(NC(c1ccccc1)c1nc(-c2ccccc2)no1)c1cccc(Br)c1 (stereo unspecified) | > 28.2 µM (inactive)
O=C(NC(c1ccc(Cl)c(Cl)c1)c1nc(-c2ccccc2)no1)c1ccc(Cl)c(Cl)c1 (stereo unspecified) | > 28.2 µM (inactive)
O=C(NC(c1nc(-c2ccccc2)no1)C1CCCCC1)c1ccc(Cl)c(Cl)c1 (stereo unspecified) | > 28.2 µM (inactive)
O=C(NC(Cc1ccccc1)c1nc(-c2ccccc2)no1)c1cccc(Cl)c1 (stereo unspecified) | > 28.2 µM (inactive)
O=C(c1cccc(Cl)c1)N(CCO)C(c1ccc(Cl)c(Cl)c1)c1nc(-c2ccccc2)no1 (stereo unspecified) | > 28.2 µM (inactive)

SMILES | CC50
O=C(NC(c1cccc(Cl)c1)c1nc(-c2ccccc2)no1)c1cccc(Cl)c1 (stereo unspecified) | > 28.2 µM (inactive)
O=C(Cc1ccc(Cl)c(Cl)c1)NC(c1ccccc1)c1nc(-c2ccccc2)no1 (stereo unspecified) | > 28.2 µM (inactive)
Cc1ccc(C(=O)NC(c2ccccc2)c2nc(-c3ccccc3)no2)cc1 (stereo unspecified) | > 28.2 µM (inactive)
O=C(NC(c1ccc(Cl)cc1)c1nc(-c2cccc(Cl)c2)no1)c1cccc(Cl)c1 (stereo unspecified) | > 28.2 µM (inactive)
O=C(NC(c1ccccc1)c1nc(-c2ccccc2)no1)c1ccc(Cl)c(Cl)c1 (stereo unspecified) | > 28.2 µM (inactive)
O=C(NC(c1cccc(Cl)c1)c1nc(-c2ccccc2)no1)c1cc(Cl)cc(Cl)c1 (stereo unspecified) | > 28.2 µM (inactive)
Clc1ccc(CNC(c2ccccc2)c2nc(-c3ccccc3)no2)cc1Cl (stereo unspecified) | > 28.2 µM (inactive)
O=C(NC(c1nc(-c2ccccc2)no1)C1CCOCC1)c1ccc(Cl)c(Cl)c1 (stereo unspecified) | > 28.2 µM (inactive)
O=C(NC(c1ccc(Cl)cc1)c1nc(-c2ccccc2)no1)c1ccc(Cl)c(Cl)c1 (stereo unspecified) | > 28.2 µM (inactive)
N#Cc1ccc(C(=O)NC(c2ccc(Cl)c(Cl)c2)c2nc(-c3ccccc3)no2)cc1 (stereo unspecified) | > 28.2 µM (inactive)
O=C(NC(c1ccccc1)c1nc(-c2ccccc2)no1)c1ccc(Cl)cc1 (stereo unspecified) | > 28.2 µM (inactive)
O=C(NC(c1cccc(Cl)c1)c1nc(-c2ccccc2)no1)c1ccc(Cl)c(Cl)c1 (stereo unspecified) | > 28.2 µM (inactive)
O=C(NC(c1ccc(Cl)cc1)c1nc(-c2ccccc2)no1)c1ccc(Cl)c(Br)c1 (stereo unspecified) | > 28.2 µM (inactive)
O=C(NC(c1ccc(Br)cc1)c1nc(-c2ccccc2)no1)c1ccc(Cl)c(Cl)c1 (stereo unspecified) | > 28.2 µM (inactive)
O=C(NC(c1ccc(Cl)c(Cl)c1)c1nc(-c2ccccc2)no1)c1ccccc1 (stereo unspecified) | 24.7 µM (inactive)
